The results in this text go back to patent US6977141B2, “Direct adsorption scintillation assay for measuring enzyme activity and assaying biochemical processes” (Vicuron Pharmaceuticals Inc., priority 1998, dated 2005).

The target of this assay is MurA (Escherichia coli, UniProt P0A749). Description: Direct adsorption scintillation assay (DASA) of the coupled MurA-MurB-MurC reaction, detection of enzyme inhibition. The format is biochemical. As for the experimental part:
A reaction mixture was prepared, of which 2 μl contains 38 ng MurA, 34 ng MurB, 34 ng MurC, 40 pmol ATP, 40 pmol UDP-NAcGlc, 40 pmol PEP, 40 pmol NADPH, 4 pmol L-[^3H]-alanine (72.3 Ci/mmol) in 50 mM Tris-HCl, pH 8, 20 mM MgCl2, 20 mM (NH4)2SO4, 1 mM DTT, 0.005% Brij-35. The mixture was incubated at room temperature for one hour. After one hour, 0.25 μl of the reaction mixture was transferred into each well of the poly-D-lysine coated FLASHPLATE™; each well contained 100 μl of 10 mM acetic acid, pH 3.0. The scintillation was counted using the TOPCOUNT™.
Enzyme mixtures (with 60 ng MurA, 8 ng MurB and 60 ng MurC present in each 2 μl sample) were prepared. The enzyme-phosphomycin mixture was pre-incubated at room temperature for 30 minutes. The substrates, as prepared in Example 2, were then added to the mixture to start the reaction. After 30 minutes of reaction at room temperature, 0.25 μl of the reaction mixture was transferred into each well of the poly-D-lysine coated FLASHPLATE™; each well contained 100 μl of 10 mM acetic acid. The scintillation was counted using the TOPCOUNT™.

Chain of MurA (P0A749 whole entry): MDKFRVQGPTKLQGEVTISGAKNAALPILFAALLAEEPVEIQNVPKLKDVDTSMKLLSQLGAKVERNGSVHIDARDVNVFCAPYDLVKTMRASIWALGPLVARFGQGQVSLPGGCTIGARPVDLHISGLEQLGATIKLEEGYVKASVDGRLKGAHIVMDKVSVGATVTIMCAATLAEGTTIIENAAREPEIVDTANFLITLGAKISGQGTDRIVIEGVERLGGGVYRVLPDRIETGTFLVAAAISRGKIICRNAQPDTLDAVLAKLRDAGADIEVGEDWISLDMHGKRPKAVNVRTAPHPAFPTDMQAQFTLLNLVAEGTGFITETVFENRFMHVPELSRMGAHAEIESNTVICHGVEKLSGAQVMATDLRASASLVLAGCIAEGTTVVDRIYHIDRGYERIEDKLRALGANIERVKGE

`C[C@@H]1O[C@@H]1P(=O)(O)O` [phosphomycin]: the “scintillation count with increasing inhibitor concentration (FIG. 3)” value (60 ng MurA, 8 ng MurB, 60 ng MurC per 2 μl, 30 min pre-incubation at room temperature without UDP-NAcGlc, 30 min reaction, poly-D-lysine coated FLASHPLATE) is reported as “decreased scintillation count”. Where the note is “pre-incubation carried out in the absence of UDP-NAc-Glu, qualitative statement, no number given”, the IC50 result was “relatively high”.
